Key:
Format in all cases: biochemical
human Factor Xa = human Factor Xa (Homo sapiens (Human), UniProt P00742); test: Human factor Xa chromogenic assay; conditions: substrate S-2222, read-out: hfXa Ki
rat Factor Xa = rat Factor Xa (Rattus norvegicus (Rat), UniProt Q63207); test: Rat factor Xa chromogenic assay; conditions: substrate S-2222, read-out: rfXa Ki
human thrombin = human thrombin (Homo sapiens (Human), UniProt P00734); test: Human thrombin assay; conditions: substrate S-2238
human trypsin = human trypsin (Homo sapiens, UniProt P07477); test: Human trypsin assay; conditions: substrate S-2222
prothrombinase = prothrombinase (Homo sapiens (Human), UniProt P00742); test: Prothrombinase assay (thrombin generation); conditions: human factor Xa with human platelets, prothrombin, substrate S-2238
Sequence of prothrombinase (P00742 235-488): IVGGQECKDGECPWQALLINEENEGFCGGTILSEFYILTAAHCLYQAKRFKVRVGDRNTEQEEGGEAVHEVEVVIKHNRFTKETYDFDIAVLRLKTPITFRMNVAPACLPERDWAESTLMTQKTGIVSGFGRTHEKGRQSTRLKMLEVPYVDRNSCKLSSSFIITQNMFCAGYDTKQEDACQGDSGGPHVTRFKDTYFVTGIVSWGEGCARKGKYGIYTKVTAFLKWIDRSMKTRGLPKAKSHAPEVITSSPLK
Sequence of prothrombinase (P00742 41-179): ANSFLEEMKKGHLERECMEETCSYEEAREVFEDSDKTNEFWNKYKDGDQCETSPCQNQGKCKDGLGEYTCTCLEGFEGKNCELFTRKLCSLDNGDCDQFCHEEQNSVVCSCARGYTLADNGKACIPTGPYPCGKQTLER
Sequence of prothrombinase (P12259 29-737 partner): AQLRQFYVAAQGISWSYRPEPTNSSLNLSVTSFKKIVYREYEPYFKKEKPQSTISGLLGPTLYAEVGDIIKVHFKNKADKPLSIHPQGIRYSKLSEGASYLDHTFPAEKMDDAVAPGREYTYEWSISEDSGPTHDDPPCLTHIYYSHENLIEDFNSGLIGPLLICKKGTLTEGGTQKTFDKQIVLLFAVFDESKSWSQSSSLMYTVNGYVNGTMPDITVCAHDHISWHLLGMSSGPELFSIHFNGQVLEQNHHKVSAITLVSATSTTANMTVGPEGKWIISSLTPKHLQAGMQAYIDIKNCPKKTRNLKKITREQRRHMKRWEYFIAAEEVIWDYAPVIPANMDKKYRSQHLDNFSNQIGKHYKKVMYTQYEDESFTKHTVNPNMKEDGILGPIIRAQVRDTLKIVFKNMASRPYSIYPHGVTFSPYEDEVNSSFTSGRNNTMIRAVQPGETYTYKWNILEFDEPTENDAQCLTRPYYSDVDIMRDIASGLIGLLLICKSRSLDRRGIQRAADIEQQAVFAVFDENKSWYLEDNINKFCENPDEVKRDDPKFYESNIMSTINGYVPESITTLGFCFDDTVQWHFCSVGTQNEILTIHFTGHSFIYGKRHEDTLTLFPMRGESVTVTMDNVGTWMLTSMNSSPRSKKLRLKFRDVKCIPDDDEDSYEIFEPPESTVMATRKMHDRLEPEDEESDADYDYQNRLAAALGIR
Sequence of prothrombinase (P12259 1574-2224 partner): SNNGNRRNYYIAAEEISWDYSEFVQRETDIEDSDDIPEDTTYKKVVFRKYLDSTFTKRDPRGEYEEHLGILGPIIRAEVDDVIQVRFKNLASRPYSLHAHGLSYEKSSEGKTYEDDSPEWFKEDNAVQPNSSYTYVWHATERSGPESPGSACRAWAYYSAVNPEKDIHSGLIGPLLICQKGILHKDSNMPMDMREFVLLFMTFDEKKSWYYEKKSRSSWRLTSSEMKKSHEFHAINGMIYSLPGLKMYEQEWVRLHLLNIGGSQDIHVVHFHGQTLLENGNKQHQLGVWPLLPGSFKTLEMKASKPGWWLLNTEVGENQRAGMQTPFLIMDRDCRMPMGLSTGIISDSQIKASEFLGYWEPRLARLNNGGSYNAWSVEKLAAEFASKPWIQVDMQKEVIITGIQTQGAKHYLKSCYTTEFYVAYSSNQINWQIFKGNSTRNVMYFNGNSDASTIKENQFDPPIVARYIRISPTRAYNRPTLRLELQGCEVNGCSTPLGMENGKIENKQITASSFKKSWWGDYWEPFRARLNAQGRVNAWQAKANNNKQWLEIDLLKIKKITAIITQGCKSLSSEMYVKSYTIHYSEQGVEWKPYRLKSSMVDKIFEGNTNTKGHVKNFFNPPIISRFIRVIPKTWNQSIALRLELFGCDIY

Sequence of human Factor Xa (P00742 235-488): as the sequence (P00742 235-488) above
Sequence of human Factor Xa (P00742 41-179): as the sequence (P00742 41-179) above
Sequence of rat Factor Xa (Q63207 232-482): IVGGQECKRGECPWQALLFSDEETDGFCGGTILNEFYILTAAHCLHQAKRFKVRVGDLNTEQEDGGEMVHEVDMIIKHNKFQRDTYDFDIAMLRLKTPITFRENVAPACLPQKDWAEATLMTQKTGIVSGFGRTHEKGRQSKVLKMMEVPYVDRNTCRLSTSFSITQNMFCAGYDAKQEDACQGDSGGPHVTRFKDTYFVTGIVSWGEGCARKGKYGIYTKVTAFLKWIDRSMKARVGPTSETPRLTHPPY
Sequence of rat Factor Xa (Q63207 41-180): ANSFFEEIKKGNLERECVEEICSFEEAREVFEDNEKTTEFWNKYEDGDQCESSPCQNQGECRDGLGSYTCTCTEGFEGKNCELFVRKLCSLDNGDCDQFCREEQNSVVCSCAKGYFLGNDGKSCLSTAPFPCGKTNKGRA

COc1ccc(-n2nc(C(N)=O)c3c2C(=O)N(C2C4CN(N5CCOCC5=O)CC42)CC3)cc1 (stereo not drawn) [Example 13, 1-(4-Methoxyphenyl)-7-oxo-6-(3-(3-oxomorpholino)-3-azabicyclo[3.1.0]hexan-6-yl)-4,5,6,7-tetrahydro-1H-pyrazolo[3,4-c]pyridine-3-carboxamide]
Ki (human Factor Xa): 0.01 to 0.05 µM

COc1ccc(-n2nc(C(N)=O)c3c2C(=O)N(N2CCC(N4CCCCC4=O)CC2)CC3)cc1 [Example 14, 1-(4-Methoxyphenyl)-7-oxo-6-(2-oxo-[1,4′-bipiperidin]-1′-yl)-4,5,6,7-tetrahydro-1H-pyrazolo[3,4-c]pyridine-3-carboxamide]
Ki (human Factor Xa): ≤ 0.01 µM
Ki (rat Factor Xa): 0.05 to 1 µM
Ki (human thrombin): ≥ 1 µM
Ki (human trypsin): ≥ 1 µM
Ki (prothrombinase): ≤ 0.01 µM

NC(=O)c1cc(-n2nc(C(F)(F)F)c3c2C(=O)N(C2CCN(N4CCOCC4=O)CC2)CC3)ccc1OC(F)F [Example 33, 2-(Difluoromethoxy)-5-(7-oxo-6-(1-(3-oxomorpholino)piperidin-4-yl)-3-(trifluoromethyl)-4,5,6,7-tetrahydro-1H-pyrazolo[3,4-c]pyridin-1-yl)benzamide]
Ki (human Factor Xa): 0.05 to 1 µM

N#Cc1cc(-n2nc(C(F)(F)F)c3c2C(=O)N(C2CCN(N4CCOCC4=O)CC2)CC3)ccc1F [Example 25, 2-Fluoro-5-(7-oxo-6-(1-(3-oxomorpholino)piperidin-4-yl)-3-(trifluoromethyl)-4,5,6,7-tetra hydro-1H-pyrazolo[3,4-c]pyridin-1-yl)benzonitrile]
Ki (human Factor Xa): 0.05 to 1 µM

COc1ccc(-n2nc(C(N)=O)c3c2C(=O)N(C2CCN(N4CCCCC4=O)CC2)CC3)cc1 [Example 4, 1-(4-Methoxyphenyl)-7-oxo-6-(2′-oxo-[1,1′-bipiperidin]-4-yl)-4,5,6,7-tetrahydro-1H-pyrazolo[3,4-c]pyridine-3-carboxamide]
Ki (human Factor Xa): ≤ 0.01 µM
Ki (rat Factor Xa): 0.01 to 0.05 µM
Ki (human thrombin): ≥ 1 µM
Ki (human trypsin): ≥ 1 µM
Ki (prothrombinase): ≤ 0.01 µM

COc1ccc(-n2nc(C(N)=O)c3c2C(=O)N(C2CCN(N4CCOCC4=O)CC2)CC3)cc1 [Example 7, 1-(4-Methoxyphenyl)-7-oxo-6-(1-(3-oxomorpholino)piperidin-4-yl)-4,5,6,7-tetrahydro-1H-pyrazolo[3,4-c]pyridine-3-carboxamide]
Ki (human Factor Xa): ≤ 0.01 µM
Ki (rat Factor Xa): 0.01 to 0.05 µM
Ki (human thrombin): ≥ 1 µM
Ki (human trypsin): ≥ 1 µM
Ki (prothrombinase): ≤ 0.01 µM

COc1ccc(-n2nc(C(F)(F)F)c3c2C(=O)N(C2CCN(N4CCCCC4=O)CC2)CC3)cc1 [Example 2, 1-(4-Methoxyphenyl)-6-(2′-oxo-[1,1′-bipiperidin]-4-yl)-3-(trifluoromethyl)-5,6-dihydro-1H-pyrazolo[3,4-c]pyridin-7(4H)-one]
Ki (human Factor Xa): ≤ 0.01 µM
Ki (rat Factor Xa): ≤ 0.01 µM
Ki (human thrombin): ≥ 1 µM
Ki (human trypsin): ≥ 1 µM
Ki (prothrombinase): ≤ 0.01 µM

COc1ccc(-n2nc(/C(N)=N\C#N)c3c2C(=O)N(C2CCN(N4CCCCC4=O)CC2)CC3)cc1 [Example 6, N′-Cyano-1-(4-methoxyphenyl)-7-oxo-6-(2′-oxo-[1,1′-bipiperidin]-4-yl)-4,5,6,7-tetrahydro-1H-pyrazolo[3,4-c]pyridine-3-carboximidamide]
Ki (human Factor Xa): ≤ 0.01 µM
Ki (rat Factor Xa): 0.01 to 0.05 µM
Ki (human thrombin): ≥ 1 µM
Ki (human trypsin): ≥ 1 µM
Ki (prothrombinase): ≤ 0.01 µM

O=C1c2c(c(C(F)(F)F)nn2-c2cc3ccccc3cc2F)CCN1C1CCN(N2CCOCC2=O)CC1 [Example 29, 4-(4-(1-(3-Fluoronaphthalen-2-yl)-7-oxo-3-(trifluoromethyl)-4,5-dihydro-1H-pyrazolo[3,4-c]pyridin-6(7H)-yl)piperidin-1-yl)morpholin-3-one]
Ki (human Factor Xa): ≤ 0.01 µM
Ki (rat Factor Xa): ≤ 0.01 µM
Ki (human thrombin): ≥ 1 µM
Ki (human trypsin): ≥ 1 µM
Ki (prothrombinase): ≤ 0.01 µM

COc1ccc(-n2nc(C(F)(F)F)c3c2C(=O)N(C2CCN(N4CCCC4=O)CC2)CC3)cc1 [Example 3, 1-(4-Methoxyphenyl)-6-(1-(2-oxopyrrolidin-1-yl)piperidin-4-yl)-3-(trifluoromethyl)-5,6-dihydro-1H-pyrazolo[3,4-c]pyridin-7(4H)-one]
Ki (human Factor Xa): ≤ 0.01 µM
Ki (rat Factor Xa): ≤ 0.01 µM
Ki (human thrombin): ≥ 1 µM
Ki (human trypsin): ≥ 1 µM
Ki (prothrombinase): ≤ 0.01 µM

COc1ccc(-n2nc(C(F)(F)F)c3c2C(=O)N(C2CCN(N4CCOCC4=O)CC2)CC3)cc1 [Example 1, 4-(4-(1-(4-Methoxyphenyl)-7-oxo-3-(trifluoromethyl)-4,5-dihydro-1H-pyrazolo[3,4-c]pyridin-6(7H)-yl)piperidin-1-yl)morpholin-3-one]
Ki (human Factor Xa): ≤ 0.01 µM
Ki (rat Factor Xa): ≤ 0.01 µM
Ki (human thrombin): ≥ 1 µM
Ki (human trypsin): ≥ 1 µM
Ki (prothrombinase): ≤ 0.01 µM

COc1ccc(-n2nc(C(N)=O)cc2C(=O)N(C)C2CCN(N3CCOCC3=O)CC2)cc1 [Example 16, 1-(4-Methoxyphenyl)-N^5-methyl-N^5-(1-(3-oxomorpholino)piperidin-4-yl)-1H-pyrazole-3,5-dicarboxamide]
Ki (human Factor Xa): 0.05 to 1 µM

NC(=O)c1nn(-c2ccc(OC(F)(F)F)cc2)c2c1CCN(C1CCN(N3CCOCC3=O)CC1)C2=O [Example 10, 7-Oxo-6-(1-(3-oxomorpholino)piperidin-4-yl)-1-(4-(trifluoromethoxy)phenyl)-4,5,6,7-tetr a hydro-1H-pyrazolo[3,4-c]pyridine-3-carboxamide]
Ki (human Factor Xa): ≤ 0.01 µM
Ki (rat Factor Xa): 0.05 to 1 µM
Ki (human thrombin): ≥ 1 µM
Ki (human trypsin): ≥ 1 µM
Ki (prothrombinase): 0.05 to 1 µM

COc1ccc(-n2nc(C(N)=O)cc2C(=O)N(C2CC2)C2CCN(N3CCOCC3=O)CC2)cc1 [Example 18, N^5-Cyclopropyl-1-(4-methoxyphenyl)-N^5-(1-(3-oxomorpholino)piperidin-4-yl)-1H-pyrazole-3,5-dicarboxamide]
Ki (human Factor Xa): 0.05 to 1 µM

NC(=O)c1cccc(-n2nc(C(F)(F)F)c3c2C(=O)N(C2CCN(N4CCOCC4=O)CC2)CC3)c1 [Example 31, 3-(7-Oxo-6-(1-(3-oxomorpholino)piperidin-4-yl)-3-(trifluoromethyl)-4,5,6,7-tetrahydro-1H-pyrazolo[3,4-c]pyridin-1-yl)benzamide]
Ki (human Factor Xa): ≤ 0.01 µM
Ki (rat Factor Xa): 0.01 to 0.05 µM
Ki (human thrombin): ≥ 1 µM
Ki (human trypsin): ≥ 1 µM
Ki (prothrombinase): 0.01 to 0.05 µM

N#Cc1cccc(-n2nc(C(F)(F)F)c3c2C(=O)N(C2CCN(N4CCOCC4=O)CC2)CC3)c1 [Example 27, 3-(7-Oxo-6-(1-(3-oxomorpholino)piperidin-4-yl)-3-(trifluoromethyl)-4,5,6,7-tetrahydro-1H-pyrazolo[3,4-c]pyridin-1-yl)benzonitrile]
Ki (human Factor Xa): 0.01 to 0.05 µM

COc1ccc(-n2nc(C(N)=O)cc2C(=O)NC2CCN(N3CCOCC3=O)CC2)cc1 [Example 15, 1-(4-Methoxyphenyl)-N^5-(1-(3-oxomorpholino)piperidin-4-yl)-1H-pyrazole-3,5-dicarboxamide]
Ki (human Factor Xa): 0.01 to 0.05 µM
Ki (prothrombinase): 0.01 to 0.05 µM

CS(=O)(=O)N1CCC(n2nc(C(N)=O)cc2C(=O)NC2CCN(N3CCOCC3=O)CC2)CC1 [Example 21, 1-(1-(Methylsulfonyl)piperidin-4-yl)-N^5-(1-(3-oxomorpholino)piperidin-4-yl)-1H-pyrazole-3,5-dicarboxamide]
Ki (human Factor Xa): 0.05 to 1 µM

COc1ccc(-n2nc(C(N)=O)cc2C(=O)NC2CCN(N3CCOCC3=O)C2)cc1 (stereo not drawn) [Example 19, 1-(4-Methoxyphenyl)-N^5-(1-(3-oxomorpholino)pyrrolidin-3-yl)-1H-pyrazole-3,5-dicarboxamide]
Ki (human Factor Xa): 0.05 to 1 µM

NC(=O)c1cc(C(=O)NC2CCN(N3CCOCC3=O)CC2)n(C2CCOCC2)n1 [Example 20, N^5-(1-(3-Oxomorpholino)piperidin-4-yl)-1-(tetrahydro-2H-pyran-4-yl)-1H-pyrazole-3,5-dicarboxamide]
Ki (human Factor Xa): 0.01 to 0.05 µM

CCN(C(=O)c1cc(C(N)=O)nn1-c1ccc(OC)cc1)C1CCN(N2CCOCC2=O)CC1 [Example 17, N^5-Ethyl-1-(4-methoxyphenyl)-N^5-(1-(3-oxomorpholino)piperidin-4-yl)-1H-pyrazole-3,5-dicarboxamide]
Ki (human Factor Xa): 0.05 to 1 µM

NC(=O)c1nn(-c2ccc(Cl)cc2)c2c1CCN(C1CCN(N3CCOCC3=O)CC1)C2=O [Example 9, 1-(4-Chlorophenyl)-7-oxo-6-(1-(3-oxomorpholino)piperidin-4-yl)-4,5,6,7-tetrahydro-1H-pyrazolo[3,4-c]pyridine-3-carboxamide]
Ki (human Factor Xa): 0.01 to 0.05 µM

COc1ccc(-n2nc(C(N)=O)c3c2C(=O)N(C2CCN(C4CCNC4=O)CC2)CC3)cc1 (single isomer, unassigned) [Example 8a, 1-(4-Methoxyphenyl)-7-oxo-6-(1-(2-oxopyrrolidin-3-yl)piperidin-4-yl)-4,5,6,7-tetrahydro-1H-pyrazolo[3,4-c]pyridine-3-carboxamide]
Ki (human Factor Xa): 0.05 to 1 µM
Ki (rat Factor Xa): 0.01 to 0.05 µM

COC1CCC(n2nc(C(N)=O)cc2C(=O)NC2CCN(N3CCOCC3=O)CC2)CC1 (stereo not drawn) [Example 22, 1-(4-Methoxycyclohexyl)-N^5-(1-(3-oxomorpholino)piperidin-4-yl)-1H-pyrazole-3,5-dicarboxamide]
Ki (human Factor Xa): 0.05 to 1 µM

COc1ccc(-n2nc(C(N)=O)c3c2C(=O)N(C2C4CN(N5CCCCC5=O)CC42)CC3)cc1 (stereo not drawn) [Example 12, 1-(4-Methoxyphenyl)-7-oxo-6-(3-(2-oxopiperidin-1-yl)-3-azabicyclo[3.1.0]hexan-6-yl)-4,5,6,7-tetrahydro-1H-pyrazolo[3,4-c]pyridine-3-carboxamide]
Ki (human Factor Xa): 0.01 to 0.05 µM

N#Cc1cc(-n2nc(C(F)(F)F)c3c2C(=O)N(C2CCN(N4CCOCC4=O)CC2)CC3)ccc1OC(F)F [Example 30, 2-(Difluoromethoxy)-5-(7-oxo-6-(1-(3-oxomorpholino)piperidin-4-yl)-3-(trifluoromethyl)-4,5,6,7-tetrahydro-1H-pyrazolo[3,4-c]pyridin-1-yl)benzonitrile]
Ki (human Factor Xa): 0.05 to 1 µM

NC(=O)c1cc(-n2nc(C(F)(F)F)c3c2C(=O)N(C2CCN(N4CCOCC4=O)CC2)CC3)ccc1F [Example 32, 2-Fluoro-5-(7-oxo-6-(1-(3-oxomorpholino)piperidin-4-yl)-3-(trifluoromethyl)-4,5,6,7-tetra hydro-1H-pyrazolo[3,4-c]pyridin-1-yl)benzamide]
Ki (human Factor Xa): 0.05 to 1 µM

From patent US9938272B2, “Hydrazine compound as blood coagulation factor Xa inhibitor” (NORTH CHINA PHARMACEUTICAL COMPANY., LTD., priority 2014, dated 2018)
